Measured values: patent US20130344095A1, “METHOD OF USING CD1D OVER-EXPRESSION IN HUMAN DENDRITIC CELLS TO ENHANCE CD8+ T CELL-BASED AND INVARIANT NATURAL KILLER T CELL-BASED ANTITUMOR IMMUNITY” (priority 2011, published 2013)

Tests used:
[1] = tested on: MART-1 peptide-specific CD8+ T cells; assay: Priming of MART-1 peptide-specific CD8+ T cells by H1.DCs (pentamer staining); assay type: cell-based, human; details: for T cell priming ability of CD1d-overexpressing H1.DCs: DCs treated 24 hours with 20 μM PPMP or 150 μM NB-DGJ one day after transduction
Description: (§1) The DCs were first transduced by BV-CMV.CD1d-WPRE and pulsed with or without 100 ng/ml α-GC for 24 h one day after transduction. Two days after transduction, the DCs were pulsed with 10 μg/ml MART-1 peptide for 4 h. After washing, 10^5 DCs were co-cultured with 10^6 HLA A2+ PBLs in complete RPMI 1640. After co-culture of 9 days, to detect antigen-specific CTLs, the samples were stained with APC mouse anti-human CD3, FITC-labeled anti-CD8 (ProImmune) and R-PE-labeled A*0201/[…] Pentamer (ProImmune) and analyzed by FACSAria flow cytometer. In some experiments, the CD1d-overexpressing human DCs were pretreated with anti-CD1d blocking antibody (eBioscience, San Diego, Calif.) or its isotype control (eBiosciecne) before applying for T cell priming. To study the effect of glycolipid biosynthesis inhibition on T cell priming, the BVCD1d-transduced human DCs were treated with 20 μM DL-threo-1-Phenyl-2-palmitoylamino-3-morpholino-1-propanol (PPMP; Sigma-Aldrich) or 150 μM N-(n-Butyl)deoxygalactonojirimycin (NB-DGJ; Merck KGaA, Darmstadt, Germany) for 24 hours one day after transduction. In other experiments, the cocultures were restimulated with 10^5 MART-1 peptide-pulsed DCs on day 9 of coculture and analyzed one week after restimulation. To measure antigen-specific CTL activity, the cocultures were stimulated for the third time on day 7 after second stimulation with 10^5 MART-1 peptide-pulsed DCs and used as effectors for lysis of tumor cells one week later.

[2] = tested on: MART-1 peptide-specific CD8+ T cells; assay: Priming of MART-1 peptide-specific CD8+ T cells by moDCs (pentamer staining); assay type: cell-based, human; details: DCs treated 24 hours with 20 μM PPMP or 150 μM NB-DGJ one day after transduction
Description: as §1, with “To measure antigen-specific CTL activity, the cocultures were stimulated for the third time on day 7 after second stimulation with 10^5 MART-1 peptide-pulsed DCs and used as effectors for lysis of tumor cells one week later.” left out

Row | SMILES | T cell priming ability of CD1d-overexpressing H1.DCs [1] | T cell priming ability of CD1d-overexpressing moDCs [2] | priming ability of CD1d-overexpressing H1.DCs with α-GC loading ([1]; compared with those without α-GC loading (p<0.04)) | effect of α-GC loading on priming of antigen-specific CD8+ T cells ([1]; mock-transduced, BV-PacPAK6-transduced and CD1d-overexpressing H1.DCs, 100 ng/ml α-GC)
1 | CCCCCCCCCCCCCCCC(=O)N[C@H](CN1CCOCC1)[C@H](O)c1ccccc1 (racemic) [PPMP, DL-threo-1-Phenyl-2-palmitoylamino-3-morpholino-1-propanol] | inhibited | inhibited | – | –
2 | CCCCN1C[C@H](O)[C@@H](O)[C@@H](O)[C@H]1CO [NB-DGJ, N-(n-Butyl)deoxygalactonojirimycin] | inhibited | inhibited | – | –
3 | CCCCCCCCCCCCCCCCCCCCCCCCCC(=O)N[C@@H](CO[C@H]1O[C@H](CO)[C@H](O)[C@H](O)[C@H]1O)[C@H](O)[C@H](O)CCCCCCCCCCCCCC [α-GC, α-galactosylceramide] | – | – | significantly decreased | no obvious beneficial effect
